Measured values as given in PubChem BioAssay AID1259407 (Chemical Carcinogenesis Research Information System (CCRIS), 2018).
Activity calls are given as the source filed them. No rule for the calls is given here.

Tested on: CCRIS mutagenicity, Ames/micronucleus/aberration tests
Assay: CCRIS mutagenicity studies
[1] = Test System: AMES SALMONELLA TYPHIMURIUM, Strain/Indicator: TA98, Metabolic Activation: NONE, Method: PREINCUBATION
[2] = Test System: AMES SALMONELLA TYPHIMURIUM, Strain/Indicator: TA98, Metabolic Activation: NONE, Method: STANDARD PLATE
[3] = Test System: AMES SALMONELLA TYPHIMURIUM, Strain/Indicator: TA100, Metabolic Activation: NONE, Method: PREINCUBATION
[4] = Test System: AMES SALMONELLA TYPHIMURIUM, Strain/Indicator: TA100, Metabolic Activation: NONE, Method: STANDARD PLATE
[5] = Test System: AMES SALMONELLA TYPHIMURIUM, Strain/Indicator: TA1535, Metabolic Activation: NONE, Method: STANDARD PLATE
[6] = Test System: AMES SALMONELLA TYPHIMURIUM, Strain/Indicator: TA1538, Metabolic Activation: NONE, Method: STANDARD PLATE
[7] = Test System: AMES SALMONELLA TYPHIMURIUM, Strain/Indicator: TA98, Metabolic Activation: RAT, LIVER, S-9, AROCLOR 1254, Method: STANDARD PLATE

CC(C)CC(C)Nc1ccc(Nc2ccccc2)cc1 (stereo not given)
mutagenic call (Test System: AMES SALMONELLA TYPHIMURIUM, Strain/Indicator: TA97, Metabolic Activation: MOUSE, LIVER, S-9, DELOR 103, Method: STANDARD PLATE): inactive; negative | mutagenic call (Test System: AMES SALMONELLA TYPHIMURIUM, Strain/Indicator: TA97, Metabolic Activation: NONE, Method: STANDARD PLATE): inactive; negative | mutagenic call (Test System: AMES SALMONELLA TYPHIMURIUM, Strain/Indicator: TA98, Metabolic Activation: HAMSTER, LIVER, S-9, AROCLOR 1254 (10%), Method: PREINCUBATION): inactive; negative | mutagenic call (Test System: AMES SALMONELLA TYPHIMURIUM, Strain/Indicator: TA98, Metabolic Activation: MOUSE, LIVER, S-9, DELOR 103, Method: STANDARD PLATE): inactive; negative | mutagenic call [1]: inactive; negative | mutagenic call [2]: inactive; negative | mutagenic call (Test System: AMES SALMONELLA TYPHIMURIUM, Strain/Indicator: TA98, Metabolic Activation: RAT, LIVER, S-9, AROCLOR 1254 (10%), Method: PREINCUBATION): inactive; negative | mutagenic call (Test System: AMES SALMONELLA TYPHIMURIUM, Strain/Indicator: TA100, Metabolic Activation: HAMSTER, LIVER, S-9, AROCLOR 1254 (10%), Method: PREINCUBATION): inactive; negative | mutagenic call (Test System: AMES SALMONELLA TYPHIMURIUM, Strain/Indicator: TA100, Metabolic Activation: MOUSE, LIVER, S-9, DELOR 103, Method: STANDARD PLATE): inactive; negative | mutagenic call [3]: inactive; negative | mutagenic call [4]: inactive; negative | mutagenic call (Test System: AMES SALMONELLA TYPHIMURIUM, Strain/Indicator: TA100, Metabolic Activation: RAT, LIVER, S-9, AROCLOR 1254 (10%), Method: PREINCUBATION): inactive; negative | mutagenic call (Test System: AMES SALMONELLA TYPHIMURIUM, Strain/Indicator: TA1535, Metabolic Activation: HAMSTER, LIVER, S-9, AROCLOR 1254 (10%), Method: PREINCUBATION): inactive; negative | mutagenic call (Test System: AMES SALMONELLA TYPHIMURIUM, Strain/Indicator: TA1535, Metabolic Activation: NONE, Method: PREINCUBATION): inactive; negative | mutagenic call [5]: inactive; negative | mutagenic call (Test System: AMES SALMONELLA TYPHIMURIUM, Strain/Indicator: TA1535, Metabolic Activation: RAT, LIVER, S-9, AROCLOR 1254 (10%), Method: PREINCUBATION): inactive; negative | mutagenic call (Test System: AMES SALMONELLA TYPHIMURIUM, Strain/Indicator: TA1537, Metabolic Activation: HAMSTER, LIVER, S-9, AROCLOR 1254 (10%), Method: PREINCUBATION): inactive; negative | mutagenic call (Test System: AMES SALMONELLA TYPHIMURIUM, Strain/Indicator: TA1537, Metabolic Activation: NONE, Method: PREINCUBATION): inactive; negative | mutagenic call (Test System: AMES SALMONELLA TYPHIMURIUM, Strain/Indicator: TA1537, Metabolic Activation: RAT, LIVER, S-9, AROCLOR 1254 (10%), Method: PREINCUBATION): inactive; negative | mutagenic call [6]: inactive; negative

Nc1ccc2ncsc2c1
mutagenic call [3]: inactive; negative | mutagenic call (Test System: AMES SALMONELLA TYPHIMURIUM, Strain/Indicator: TA100, Metabolic Activation: RAT LIVER S-9, PHENOBARBITAL AND 5,6-BENZOFLAVONE, Method: PREINCUBATION): inactive; negative | mutagenic call (Test System: AMES SALMONELLA TYPHIMURIUM, Strain/Indicator: YG1029, Metabolic Activation: NONE, Method: PREINCUBATION): inactive; negative | mutagenic call (Test System: AMES SALMONELLA TYPHIMURIUM, Strain/Indicator: YG1029, Metabolic Activation: RAT LIVER S-9, PHENOBARBITAL AND 5,6-BENZOFLAVONE, Method: PREINCUBATION): active; positive

NC1c2ccccc2-c2ccccc21
mutagenic call (Test System: AMES SALMONELLA TYPHIMURIUM, Strain/Indicator: TA98, Metabolic Activation: RAT, LIVER, S-9, AROCLOR 1254 (2 OR 4%), Method: STANDARD PLATE): inactive; negative | mutagenic call (Test System: AMES SALMONELLA TYPHIMURIUM, Strain/Indicator: TA100, Metabolic Activation: RAT, LIVER, S-9, AROCLOR 1254 (2%), Method: STANDARD PLATE): inactive; negative | mutagenic call (Test System: AMES SALMONELLA TYPHIMURIUM, Strain/Indicator: TA1535, Metabolic Activation: RAT, LIVER, S-9, AROCLOR 1254 (2%), Method: STANDARD PLATE): inactive; negative | mutagenic call (Test System: AMES SALMONELLA TYPHIMURIUM, Strain/Indicator: TA1537, Metabolic Activation: RAT, LIVER, S-9, AROCLOR 1254 (2%), Method: STANDARD PLATE): inactive; negative

Nc1ccc2c3c(cccc13)C(=O)c1ccccc1-2
mutagenic call (End Point: In vivo micronucleus, Test System: lacZ mutant frequency in liver, lung, and bone marrow cells, Species: Mouse, Strain/Sex: Big Blue (BALB/c x DBA2)/Male, Route: Oral): active; positive in liver and bone marrow

CC(C)(O)CCc1ccc(O)c2c(=O)c3c(O)c4c(cc3oc12)O[C@H]1OC=C[C@@]41O
mutagenic call [2]: inactive; negative | mutagenic call [7]: active; positive | mutagenic call [4]: inactive; negative | mutagenic call (Test System: AMES SALMONELLA TYPHIMURIUM, Strain/Indicator: TA100, Metabolic Activation: RAT, LIVER, S-9, AROCLOR 1254, Method: STANDARD PLATE): active; positive

Cc1cc2cc3ccccc3c3ccc4cccc1c4c23
mutagenic call (Test System: AMES SALMONELLA TYPHIMURIUM, Strain/Indicator: TA100, Metabolic Activation: RAT, INTACT HEPATOCYTES, AROCLOR 1254, Method: PREINCUBATION): active; positive | mutagenic call (Test System: AMES SALMONELLA TYPHIMURIUM, Strain/Indicator: TA100, Metabolic Activation: RAT, NADPH-FORTIFIED HOMOGENIZED HEPATOCYTES, AROCLOR 1254, Method: PREINCUBATION): active; positive

CCN(CC)CC#CCOC(=O)C(O)(c1ccccc1)C1CCCCC1 (stereo not given)
mutagenic call (Test System: AMES SALMONELLA TYPHIMURIUM, Strain/Indicator: TA98, Metabolic Activation: NONE): inactive; negative | mutagenic call (Test System: AMES SALMONELLA TYPHIMURIUM, Strain/Indicator: TA98, Metabolic Activation: S-9): inactive; negative | mutagenic call (Test System: AMES SALMONELLA TYPHIMURIUM, Strain/Indicator: TA100, Metabolic Activation: NONE): inactive; negative | mutagenic call (Test System: AMES SALMONELLA TYPHIMURIUM, Strain/Indicator: TA100, Metabolic Activation: S-9): inactive; negative | mutagenic call (Test System: AMES SALMONELLA TYPHIMURIUM, Strain/Indicator: TA1535, Metabolic Activation: NONE): inactive; negative | mutagenic call (Test System: AMES SALMONELLA TYPHIMURIUM, Strain/Indicator: TA1535, Metabolic Activation: S-9): inactive; negative | mutagenic call (Test System: AMES SALMONELLA TYPHIMURIUM, Strain/Indicator: TA1537, Metabolic Activation: NONE): inactive; negative | mutagenic call (Test System: AMES SALMONELLA TYPHIMURIUM, Strain/Indicator: TA1537, Metabolic Activation: S-9): inactive; negative | mutagenic call (Test System: AMES SALMONELLA TYPHIMURIUM, Strain/Indicator: TA1538, Metabolic Activation: NONE): inactive; negative | mutagenic call (Test System: AMES SALMONELLA TYPHIMURIUM, Strain/Indicator: TA1538, Metabolic Activation: S-9): inactive; negative | mutagenic call (Test System: E. COLI, Strain/Indicator: WP2 UVRA, Metabolic Activation: NONE): inactive; negative | mutagenic call (Test System: E. COLI, Strain/Indicator: WP2 UVRA, Metabolic Activation: S-9): inactive; negative

CC(=O)OCCCCONC(=O)c1ccccc1
mutagenic call [2]: active; positive | mutagenic call [4]: active; positive | mutagenic call (Test System: AMES SALMONELLA TYPHIMURIUM, Strain/Indicator: TA100, Metabolic Activation: RAT,S-9, AROCLOR, Method: STANDARD PLATE): active; positive

Nc1ccc(Cc2ccc(N=O)c(Cl)c2)cc1Cl
mutagenic call [1]: inactive; negative | mutagenic call [3]: inactive; negative

COc1cccc2c(NCCCNCCCl)c3ccccc3nc12
mutagenic call [2]: active; positive | mutagenic call [4]: active; positive | mutagenic call [5]: inactive; negative | mutagenic call (Test System: AMES SALMONELLA TYPHIMURIUM, Strain/Indicator: TA1536, Metabolic Activation: NONE, Method: STANDARD PLATE): active; positive | mutagenic call (Test System: AMES SALMONELLA TYPHIMURIUM, Strain/Indicator: TA1537, Metabolic Activation: NONE, Method: STANDARD PLATE): active; positive | mutagenic call [6]: active; positive

O=C(OC[C@@H]1CO1)c1ccc([N+](=O)[O-])cc1
mutagenic call [4]: active; positive

Cn1c(N)nc2c3cnccc3ccc21
mutagenic call [7]: active; positive
